US20200339544A1 (JOINT STOCK COMPANY "BIOCAD", priority 2017, published 2020)
Where two headings read alike, the source gives them in different places. Marks after values point to notes of the source that are not given here.

Legend:
[1] = Enzyme stability in human liver S9 fractions; assay type: in vitro ADME; conditions: 0.5 mg/mL pooled human liver S9 fractions; 10 μM compound; 37° C.; pH 7.4; read-out: Stability in liver S9 fractions, Clint
Procedure, shortened: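 Compound at 10 μM was incubated at 37 °C with 0.5 mg/mL pooled human liver S9, 2 mM β-NAD and 4 mM MgCl2 in 0.1 M sodium phosphate, pH 7.4, then quenched with acetonitrile and analysed chromatographically. T½ and CLint were derived from the slope of log peak area versus time.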

WT EGFR (Wild-Type EGFR) = target: T1, WT EGFR (Wild-Type EGFR) (Homo sapiens, UniProt P00533); test: Inhibition of WT EGFR kinase activity (ADP-Glo); assay type: biochemical
T1 construct: purchased SignalChem
Procedure, shortened: (§1)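 Recombinant WT or double-mutant EGFR was incubated with a solution of 0.5 mg/mL peptide substrate and 50 μM ATP for 180 minutes at 37° C. Kinase activity was detected by ADP-Glo luminescence. IC50 values came from a four-parameter logistic fit.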

[2] = target: T2, DM EGFR (DoubleMutantEGFR, L828R/T790M) (Homo sapiens, UniProt P00533, L858R/T790M); test: Inhibition of DM EGFR kinase activity (ADP-Glo); assay type: biochemical; conditions: for IC50: inhibition of kinase activity, EGFR DM (L828R/T790M); for SI, IC50(WT)/IC50(DM): selectivity index, kinase EGFR WT vs EGFR DM
T2 construct: purchased SignalChem
Procedure, shortened: as §1

[3] = test system: A549 (lung adenocarcinoma, WT); test: Antiproliferative activity on A549 cells (Alamar Blue); assay type: cell-based; conditions: Homo sapiens, antiproliferative test
Procedure, shortened: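 Cells seeded at 5*10^3/well in RPMI-1640 with 2% FBS, attached 16-18 h at 37° C, then exposed to compounds (≤1% DMSO) for 72 h. Alamar Blue added for 3-5 h; fluorescence read at 540/590 nm. IC50 from four-parameter logistic fit.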

[4] = test system: H1975 (lung adenocarcinoma, DM, L828R/T790M); test: Antiproliferative activity on H1975 cells (Alamar Blue); assay type: cell-based; conditions: for IC50: Homo sapiens, NCI-H1975, H1975 cells; for SI IC50(A549)/IC50(DM): selectivity index, A549 vs H1975 cells
Procedure, shortened: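 H1975 cells (15*10^3/well) attached 16-18 h in RPMI-1640 with 2% FBS, then exposed to compounds (≤1% DMSO final) for 72 h at 37 °C. Viability by Alamar Blue fluorescence (Ex 540/Em 590 nm) after 3-5 h; IC50 from four-parameter logistic fit.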

[5] = General cytotoxicity on HepG2 cells; assay type: cell-based; conditions: human; general cytotoxicity, HepG2 cells, 72 hours, average of several tests
Procedure, shortened: (§2)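 HepG2 cells seeded at 2*10^4 cells per well and compounds added in DMEM with 2% FBS for 72 h at 37 °C. Viability read with Alamar Blue and CC50 derived as for IC50. Therapeutic index taken as HepG2 CC50 over H1975 IC50.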

HepG2 cells = test: General cytotoxicity on HepG2 cells; assay type: cell-based; conditions: therapeutic index, CC50 HepG2 / IC50 H1975
Procedure, shortened: as §2

[6] = average values obtained in several tests, Table 16, read-out: H1975 (DM) IC50
[7] = antiproliferative test, Table 15, read-out: IC50 H1975 (DM)

C=CC(=O)Nc1cc(Nc2cc(C(=O)c3ccc(N4CC(OC)C4)cc3)ccn2)c(OC)cc1N(C)CCN(C)C (racemic) [EGFR_3365_53, N-(2-((2-(dimethylamino)ethyl)(methyl)amino)-4-methoxy-5-((4-(4-(3-methoxyazetidin-1-yl)benzoyl)pyridin-2-yl)amino)phenyl)acrylamide]
Intrinsic clearance in human liver S9 fractions at 10 µM [1]: 10.1 µL/min/mg | IC50 (WT EGFR (Wild-Type EGFR)): 183 nM | IC50 [2]: 7.31 nM | SI, IC50(WT)/IC50(DM) [2]: 25.06 | IC50 [3]: 8.23 µM | IC50 [4, 6]: 44.9 nM | IC50 [4, 7]: 44.9 nM | SI IC50(A549)/IC50(DM) [4]: 183 | CC50 at 72 h [5]: 20.6 µM | TI, CC50/IC50 (HepG2 cells): 457

C=CC(=O)Nc1cc(Nc2nccc(C(=O)c3ccccc3C(F)(F)F)n2)c(OC)cc1N(C)CCN(C)C [EGFR_3365, N-(2-((2-(dimethylamino)ethyl) (methyl)amino)-4-methoxy-5-((4-(2-(trifluoromethyl)benzoyl)pyrimidin-2-yl)amino)phenyl)acrylamide]
Intrinsic clearance in human liver S9 fractions at 10 µM [1]: 13.6 µL/min/mg | IC50 (WT EGFR (Wild-Type EGFR)): 587 nM | IC50 [2]: 22 nM | SI, IC50(WT)/IC50(DM) [2]: 26.69 | IC50 [3]: > 10 µM | IC50 [4, 6]: 60.1 nM | IC50 [4, 7]: 60.1 nM | SI IC50(A549)/IC50(DM) [4]: >166** | CC50 at 72 h [5]: 25.4 µM | TI, CC50/IC50 (HepG2 cells): 423

C=CC(=O)Nc1cc(Nc2cc(C(=O)c3ccccc3)ccn2)c(OC)cc1N(C)CCN(C)C [EGFR_3365_3, N-(5-((4-benzoylpyridin-2-yl)amino)-2-((2-(dimethylamino)ethyl)(methyl)amino)-4-methoxyphenyl)acrylamide]
IC50 (WT EGFR (Wild-Type EGFR)): 76.6 nM | IC50 [2]: 14.5 nM | SI, IC50(WT)/IC50(DM) [2]: 5.29 | IC50 [3]: 6.07 µM | IC50 [4, 6]: 44.5 nM | IC50 [4, 7]: 44.5 nM | SI IC50(A549)/IC50(DM) [4]: 136.32 | CC50 at 72 h [5]: 15.2 µM | TI, CC50/IC50 (HepG2 cells): 341

C=CC(=O)Nc1cc(Nc2cc(C(=O)c3ccc(N(C)C)cc3)ccn2)c(OC)cc1N(C)CCN(C)C.O=C(O)C(F)(F)F [EGFR_3365_4, N-(5-((4-(4-(dimethylamino)benzoyl)pyridin-2-yl)amino)-2-((2-(dimethylamino)ethyl) (methyl)amino)-4-methoxyphenyl)acrylamide 2,2,2-trifluoroacetate]
Intrinsic clearance in human liver S9 fractions at 10 µM [1]: 0.9 µL/min/mg | IC50 (WT EGFR (Wild-Type EGFR)): 230 nM | IC50 [2]: 21.4 nM | SI, IC50(WT)/IC50(DM) [2]: 10.79 | IC50 [3]: 5.38 µM | IC50 [4, 6]: 35.3 nM | IC50 [4, 7]: 35.3 nM | SI IC50(A549)/IC50(DM) [4]: 152.17 | CC50 at 72 h [5]: 14.8 µM | TI, CC50/IC50 (HepG2 cells): 419

C=CC(=O)Nc1cc(Nc2nccc(C(=O)c3ccc(F)cc3)n2)c(OC)cc1N(C)CCN(C)C [EGFR_3365_10, N-(2-((2-(dimethylamino)ethyl)(methyl)amino)-5-((4-(4-fluorobenzoyl)pyrimidin-2-yl)amino)-4-methoxyphenyl) acrylamide]
Intrinsic clearance in human liver S9 fractions at 10 µM [1]: 6.8 µL/min/mg | IC50 (WT EGFR (Wild-Type EGFR)): 211 nM | IC50 [2]: 7.28 nM | SI, IC50(WT)/IC50(DM) [2]: 29.06 | IC50 [3]: 13.2 µM | IC50 [4, 6]: 211 nM | IC50 [4, 7]: 211 nM | SI IC50(A549)/IC50(DM) [4]: 62.70 | CC50 at 72 h [5]: 30.4 µM | TI, CC50/IC50 (HepG2 cells): 144

C=CC(=O)Nc1cc(Nc2nccc(C(=O)c3ccccc3Br)n2)c(OC)cc1N(C)CCN(C)C [EGFR_3365_12, N-(5-((4-(2-bromobenzoyl)pyrimidin-2-yl)amino)-2-((2-(dimethylamino)ethyl) (methyl)amino)-4-methoxyphenyl)acrylamide]
IC50 (WT EGFR (Wild-Type EGFR)): 389 nM | IC50 [2]: 25.5 nM | SI, IC50(WT)/IC50(DM) [2]: 15.25 | IC50 [3]: 15.4 µM | IC50 [4, 6]: 21.5 nM | IC50 [4, 7]: 21.5 nM | SI IC50(A549)/IC50(DM) [4]: 716.20 | CC50 at 72 h [5]: 22.6 µM | TI, CC50/IC50 (HepG2 cells): 1051

C=CC(=O)Nc1cc(Nc2nccc(C(=O)c3ccc(OCc4ccccc4)cc3)n2)c(OC)cc1N(C)CCN(C)C [EGFR_3365_16, N-(5-((4-(4-(benzyloxy)benzoyl)pyrimidin-2-yl)amino)-2-((2-(dimethylamino)ethyl)(methyl)amino)-4-methoxyphenyl)acrylamide]
Intrinsic clearance in human liver S9 fractions at 10 µM [1]: 17.9 µL/min/mg | IC50 (WT EGFR (Wild-Type EGFR)): 154 nM | IC50 [2]: 32.8 nM | SI, IC50(WT)/IC50(DM) [2]: 4.70 | IC50 [3]: 2.21 µM | IC50 [4, 6]: 53.7 nM | IC50 [4, 7]: 53.7 nM | SI IC50(A549)/IC50(DM) [4]: 41.10 | CC50 at 72 h [5]: 5.79 µM | TI, CC50/IC50 (HepG2 cells): 108

C=CC(=O)Nc1cc(Nc2nccc(C(=O)c3ccc(OC)cc3)n2)c(OC)cc1N(C)CCN(C)C [EGFR_3365_28, N-(2-((2-(dimethylamino)ethyl)(methyl)amino)-4-methoxy-5-((4-(4-methoxybenzoyl)pyrimidin-2-yl)amino)phenyl)acrylamide]
IC50 (WT EGFR (Wild-Type EGFR)): 128 nM | IC50 [2]: 6.27 nM | SI, IC50(WT)/IC50(DM) [2]: 20.33 | IC50 [3]: 3.64 µM | IC50 [4, 6]: 17.1 nM | IC50 [4, 7]: 17.1 nM | SI IC50(A549)/IC50(DM) [4]: 213.04 | CC50 at 72 h [5]: 31.4 µM | TI, CC50/IC50 (HepG2 cells): 1836

C=CC(=O)Nc1cc(Nc2nccc(C(=O)c3ccc(OCC)cc3)n2)c(OC)cc1N(C)CCN(C)C [EGFR_3365_29, N-(2-((2-(dimethylamino)ethyl)(methyl)amino)-5-((4-(4-ethoxybenzoyl)pyrimidin-2-yl)amino)-4-methoxyphenyl) acrylamide]
IC50 (WT EGFR (Wild-Type EGFR)): 202 nM | IC50 [2]: 10.7 nM | SI, IC50(WT)/IC50(DM) [2]: 18.79 | IC50 [3]: 16 µM | IC50 [4, 6]: 26.9 nM | IC50 [4, 7]: 26.9 nM | SI IC50(A549)/IC50(DM) [4]: 595.06 | CC50 at 72 h [5]: 30.6 µM | TI, CC50/IC50 (HepG2 cells): 1135

C=CC(=O)Nc1cc(Nc2nccc(C(=O)c3ccc(OC(C)C)cc3)n2)c(OC)cc1N(C)CCN(C)C [EGFR_3365_31, N-(2-((2-(dimethylamino)ethyl)(methyl)amino)-5-((4-(4-isopropoxybenzoyl)pyrimidin-2-yl)amino)-4-methoxyphenyl) acrylamide]
IC50 (WT EGFR (Wild-Type EGFR)): 131 nM | IC50 [2]: 8.65 nM | SI, IC50(WT)/IC50(DM) [2]: 15.12 | IC50 [3]: 11.1 µM | IC50 [4, 6]: 7.34 nM | IC50 [4, 7]: 7.3 nM | SI IC50(A549)/IC50(DM) [4]: 1509.19 | CC50 at 72 h [5]: 9.49 µM | TI, CC50/IC50 (HepG2 cells): 1293

C=CC(=O)Nc1cc(Nc2nccc(C(=O)c3cc4ccccc4n3C)n2)c(OC)cc1N(C)CCN(C)C [EGFR_3365_94, N-(2-((2-(dimethylamino)ethyl) (methyl)amino)-4-methoxy-5-((4-(1-methyl-1H-indole-2-carbonyl)pyrimidin-2-yl)amino)phenyl)acrylamide]
IC50 (WT EGFR (Wild-Type EGFR)): 25.4 nM | IC50 [2]: 1.41 nM | SI, IC50(WT)/IC50(DM) [2]: 18.02 | IC50 [3]: 6.9 µM | IC50 [4, 6]: 6.65 nM | IC50 [4, 7]: 6.65 nM | SI IC50(A549)/IC50(DM) [4]: 1037 | CC50 at 72 h [5]: 12 µM | TI, CC50/IC50 (HepG2 cells): 1801
